Test results taken from US20070184135A1, “Morinda citrifolia-based formulation 5-LOX and 15-LOX” (priority 2003, published 2007).
Values joined by “and” are separate entries in the source; they are usually repeats but may differ in a detail not shown here. Equal values may be shown once.

Target: T1, 5-Lipoxygenase (Homo sapiens, UniProt P09917)
T1 construct: Human peripheral blood mononuclear leukocytes (PBML) were isolated through a Ficoll-Paque density gradient; endogenous in cells; host or cells: human peripheral blood mononuclear leukocytes (PBML)
T1 sequence (P09917 1-674): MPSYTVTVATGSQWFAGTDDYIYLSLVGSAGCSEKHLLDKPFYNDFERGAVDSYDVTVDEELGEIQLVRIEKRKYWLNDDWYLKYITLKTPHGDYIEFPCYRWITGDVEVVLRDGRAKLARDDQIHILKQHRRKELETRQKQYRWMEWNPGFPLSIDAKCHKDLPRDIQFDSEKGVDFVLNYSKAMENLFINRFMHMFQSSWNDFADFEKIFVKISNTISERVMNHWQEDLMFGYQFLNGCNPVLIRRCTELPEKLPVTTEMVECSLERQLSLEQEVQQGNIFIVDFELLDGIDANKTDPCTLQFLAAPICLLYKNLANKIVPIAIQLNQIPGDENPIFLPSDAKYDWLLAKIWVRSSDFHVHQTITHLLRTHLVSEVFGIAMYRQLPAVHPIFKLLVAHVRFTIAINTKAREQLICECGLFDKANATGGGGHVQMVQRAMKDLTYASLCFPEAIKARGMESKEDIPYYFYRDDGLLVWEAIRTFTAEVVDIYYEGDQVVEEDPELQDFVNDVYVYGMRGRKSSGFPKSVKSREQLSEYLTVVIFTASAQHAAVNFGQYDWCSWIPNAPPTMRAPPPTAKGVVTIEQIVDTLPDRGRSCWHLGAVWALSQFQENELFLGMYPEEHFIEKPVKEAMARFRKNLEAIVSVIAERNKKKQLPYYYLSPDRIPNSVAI
Experiment: 5-Lipoxygenase inhibition in human PBML stimulated with A 23187, LTB4 measured by EIA
Format: cell-based
Description: Methods employed in this example were adapted from the scientific literature to maximize reliability and reproducibility. […] 110-13 (2000).
In this study, the 5-LOX source was human peripheral blood mononuclear cells (PBMNC) and the substrate was arachidonic acid having a general reaction of: arachidonic acid→5-LOX→5-HPETE→LTB4. Human peripheral blood mononuclear leukocytes (PBML) were isolated through a Ficoll-Paque density gradient. The inhibiting agent was processed Morinda citrifolia puree juice concentrate. Morinda citrifolia was pre-incubated with PBML (5×10^6 cell/ml) in HBSS buffer pH 7.4 at 37° C. for 15 minutes. […] Following neutralization with NaOH and centrifugation, the supernatant LTB4 is measured using an EIA kit.
The supernatant sample was utilized in same assay and protocols as outlined in Example One above, wherein the brown substance obtained was substituted for Morinda citrifolia puree juice.

Product (0.03 uM): 3608.3 pg/well and 3403.4 pg/well | Product (0.1 uM): 2433.3 pg/well | Product (0.3 uM): 1083.1 pg/well and 1106.1 pg/well | Product (1 uM): 233.7 pg/well and 217.9 pg/well | Product (3 uM): 134.9 pg/well and 94.3 pg/well
Compound: CC(Cc1ccc(O)c(O)c1)C(C)Cc1ccc(O)c(O)c1 (centres unmarked) [NDGA, nordihydroguaretic acid]
